The subject of one series is HepG2 cells. Put plainly: Growth inhibition of HepG2 cells, sulforhodamin-B protein determination after six days of incubation. Format: cell-based. The settings on record: Homo sapiens, 144 h, six days of substance incubation, sulforhodamin-B-method, read-out: IC50-value (concentration in which the cell growth was inhibited by 50%). On the procedure: The tumor growth inhibiting activity of the substances was determined on human tumor cells in standardized in vitro test systems. In the screening tests, the substances gave IC50-values in a concentration range of 0.1 nM to 10 μM.
HepG2 cells plated at a 20,000 cell/ml in 12-well plastic dishes. Cultivation occured in Richters IMEM-ZO nutrient medium with 5% fetal calf serum (FCS) in a tissue culture incubator with a gas mixture of 5% CO2 and 95% air at a temperature of 37° C. One day after plating, the culture medium was aspirated from the cells and replaced by fresh medium which contained the respective concentrations of the test substances. For the individual concentrations and the controls without test substances, three-fold batches were done for each. Three days after the beginning of treatment, the medium was again renewed with the test compounds. After six days of substance incubation, the test was ended and the protein amount in the individual wells was determined with the sulforhodamin-B-method (according to P. Skehan et al.: New Colorimetric Cytotoxicity Assay for Anticancer-Drug Screening. J. Natl. Cancer Inst. 82: 1107–1112, 1990). The IC50-values (defined as that concentration in which the cell growth was inhibited by 50%) was taken from the dose-response curves and given as a comparative measurement for the activity of the test compounds.

In series [1] the test system is freshly isolated lymphocytes from the spleen of a Swiss mouse. Description: Immunosuppressing activity: vitality of freshly isolated spleen lymphocytes by flow-through cytometry after 2 days. Type of series: cell-based. The settings on record: Lymphocyte, 48 h, 2 days incubation, flow-through cytometer, read-out: IC50 (percentage amount of vital cells). An excerpt:
Many anti-tumor agents have not only a cytotoxic effect on tumor cells, but also on the blood cell system. This leads to a weakening of the immune defense, which can, in turn, be specifically employed to suppress the rejection reaction after an organ transplantation for example. Therefore, a use of the main compounds, optionally in combination with other compounds effective for these indications is suitable in diseases such as psoriasis or autoimmune diseases. In order to test the possibility for a therapeutic use in illnesses of this type, the substance activity was tested on freshly isolated lymphocytes as follows:
The spleen of a Swiss mouse served as a lymphocyte source. The lymphocyte population was isolated from the spleen cell suspension over a ficoll gradient and taken up in IMEM-ZO culture medium with 0,1% dextran 70,000 and 2% fetal calf serum. […] Subsequently, 10,000 cells per each sample were measured on a flow-through cytometer and the percentage amount of vital cells in the population was determined. By means of the dose-response curves, IC50-values were calculated which were also employed in the following Tables for the characterization of the individual substances: […]

This note sets out measurements from patent publication US7241745B2, “Pyridyl alkene and pyridyl alkine acid amides as cytostatics and immunosupressives” (Astellas Pharma GmbH, priority 1996, dated 2007).

pIC50: −log10 of the molar value.

As a reminder, the melting point is the temperature of the solid-liquid transition. Compound `O=C(C=CC=Cc1cccnc1)NCCCCC1CCN(C(c2ccccc2)c2ccccc2)CC1` [compound 70, N-[4-(1-diphenylmethyl-piperidin-4-yl)-butyl]-5-(pyridin-3-yl)-2,4-pentadienoic acid amide] showed a melting point of 164 to 166 °C.

In turn, `O=C(C=Cc1cccnc1)NCCCCC1CCN(C2c3ccccc3CSc3ccccc32)CC1` (stereo not shown) [compound 136, N-{4-[1-(6,11-dihydro-dibenzo [b,e]thiepin-11-yl)-piperidin-4-yl]-butyl}-3-(pyridin-3-yl)-acrylamide] yielded a melting point of 89 to 91 °C.

For the compound `O=C(C=Cc1cccnc1)NCCCCC1CCN(C(=O)C(c2ccccc2)c2ccccc2)CC1` [compound 150, N-[4-(1-diphenylacetyl-piperidin-4-yl)-butyl]-3-(pyridin-3-yl)-acrylamide], the melting point is 161 °C.

As for `O=C(C=Cc1cccnc1)NCCCCC1CCN(C(=O)c2ccccc2)CC1` [compound 159, N-[4-(1-benzoylpiperidin-4-yl)-butyl]-3-(pyridin-3-yl)-acrylamide], the pIC50 in the series on HepG2 cells was 9.30; in series [1], 8.52.

`O=C(C=Cc1cccnc1)NCCCCC1CCN(C(=O)Nc2cccc3ccccc23)CC1` [compound 195, N-{4-[1-(1-naphthylaminocarbonyl)-piperidin-4-yl]-butyl}-3-(pyridin-3-yl)-acrylamide] yielded a melting point of 198 to 200 °C.

On to `O=C(C=Cc1cccnc1)NCCCCC1CCN(S(=O)(=O)c2ccc3ccccc3c2)CC1` [compound 219, N-{4-[1-(2-naphthyl-sulfonyl)-piperidin-4-yl]-butyl}-3-(pyridin-3-yl)-acrylamide], for which the melting point was in the range of 85 to 87 °C.
